In ChEMBL document CHEMBL1201862, “PubChem BioAssay data set” (2004):
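Each compound was tested at five concentrations against cells in 96-well plates for 48 hours. GI50 marks 50% less growth.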 Calls of active or inactive are those of the source. Rule as the data show it: active = GI50 up to about 1.1 µM and inactive = higher.

How the values were obtained:
Assay in all cases: NCI tumour cell line growth inhibition, 48 h
[1] = test system: 786-0
[2] = test system: ACHN
[3] = test system: CCRF-CEM
[4] = test system: EKVX
[5] = test system: HCC 2998
[6] = test system: HCT-116
[7] = test system: HCT-15
[8] = test system: HOP-92
[9] = test system: HT-29
[10] = test system: M14
[11] = test system: MOLT-4
[12] = test system: OVCAR-4
[13] = test system: OVCAR-8
[14] = test system: SF-268
[15] = test system: SK-MEL-5
[16] = test system: SK-OV-3
[17] = test system: SW-620
[18] = test system: UO-31
[19] = test system: RPMI-8226

Compound | GI50 [1] | GI50 [2] | GI50 [3] | GI50 [4] | GI50 [5] | GI50 [6] | GI50 [7] [µM] | GI50 [8] | GI50 [9] | GI50 [10] | GI50 [11] | GI50 [12] | GI50 [13] | GI50 [14] | GI50 [15] | GI50 [16] | GI50 [17] | GI50 [18] | GI50 [19]
CCOC(=O)CNc1nc(=O)c2c(=O)oc(Cl)cc2o1 | 10.2 µM (inactive) | 13.5 µM (inactive) | 5.82 µM (inactive) | 16.1 µM (inactive) | 15.6 µM (inactive) | 12.1 µM (inactive) | 10 | 3.69 µM (inactive) | 10.7 µM (inactive) | 17.9 µM (inactive) | 12.6 µM (inactive) | 17.6 µM (inactive) | 11.2 µM (inactive) | 14.7 µM (inactive) | 27.1 µM (inactive) | > 100 µM (inactive) | 8.81 µM (inactive) | 12.8 µM (inactive) | –
CCOC(OC(C)=O)[C@@H]1C=C[C@H](C)N(c2ccc([N+](=O)[O-])cc2)O1 (stereo not given in full) | 2.67 µM (inactive) | 5.13 µM (inactive) | 2.29 µM (inactive) | 16.1 µM (inactive) | 11.9 µM (inactive) | 1.25 µM (inactive) | 2.4 | 6.25 µM (inactive) | 3.17 µM (inactive) | 3.06 µM (inactive) | 1.86 µM (inactive) | 6.49 µM (inactive) | 2.02 µM (inactive) | 3.13 µM (inactive) | 4 µM (inactive) | 17.8 µM (inactive) | 2.46 µM (inactive) | 3.45 µM (inactive) | 2.06 µM (inactive)
Nc1ccccc1C(=O)/C=C/c1ccccc1O | 57 µM (inactive) | – | 33.9 µM (inactive) | > 100 µM (inactive) | 32.3 µM (inactive) | 38.2 µM (inactive) | – | 20.6 µM (inactive) | > 100 µM (inactive) | 32.3 µM (inactive) | 31.3 µM (inactive) | 48.6 µM (inactive) | 50.8 µM (inactive) | 56.5 µM (inactive) | 65 µM (inactive) | > 100 µM (inactive) | 35.4 µM (inactive) | 58.5 µM (inactive) | 27.5 µM (inactive)
CC(=O)NC(CCCNCc1ccccc1)C(=O)NCc1ccccc1 (stereo not given) | > 100 µM (inactive) | > 100 µM (inactive) | > 100 µM (inactive) | > 100 µM (inactive) | > 100 µM (inactive) | > 100 µM (inactive) | > 100 | > 100 µM (inactive) | > 100 µM (inactive) | > 100 µM (inactive) | > 100 µM (inactive) | > 100 µM (inactive) | > 100 µM (inactive) | > 100 µM (inactive) | > 100 µM (inactive) | > 100 µM (inactive) | > 100 µM (inactive) | > 100 µM (inactive) | > 100 µM (inactive)
CO[C@]12C[C@@H](CNC(=O)c3cc(Br)c[nH]3)O[C@H]1NC(=O)N2 | > 100 µM (inactive) | > 100 µM (inactive) | > 100 µM (inactive) | > 100 µM (inactive) | > 100 µM (inactive) | > 100 µM (inactive) | > 100 | > 100 µM (inactive) | > 100 µM (inactive) | > 100 µM (inactive) | > 100 µM (inactive) | > 100 µM (inactive) | > 100 µM (inactive) | > 100 µM (inactive) | > 100 µM (inactive) | > 100 µM (inactive) | > 100 µM (inactive) | > 100 µM (inactive) | > 100 µM (inactive)
Cc1ccc(Nc2nc(N)nc3c2ncn3C2OC(CO)C(O)C2O)cc1 (stereo not given) | > 100 µM (inactive) | > 100 µM (inactive) | > 100 µM (inactive) | > 100 µM (inactive) | > 100 µM (inactive) | > 100 µM (inactive) | > 100 | > 100 µM (inactive) | > 100 µM (inactive) | > 100 µM (inactive) | > 100 µM (inactive) | > 100 µM (inactive) | > 100 µM (inactive) | – | > 100 µM (inactive) | > 100 µM (inactive) | > 100 µM (inactive) | > 100 µM (inactive) | > 100 µM (inactive)
C1=C2C3=[N+](CCCC3)CC2Cc2sccc21 (stereo not given) | > 100 µM (inactive) | > 100 µM (inactive) | > 100 µM (inactive) | 42.7 µM (inactive) | – | > 100 µM (inactive) | > 100 | 99.8 µM (inactive) | 53.2 µM (inactive) | > 100 µM (inactive) | > 100 µM (inactive) | 42.5 µM (inactive) | > 100 µM (inactive) | > 100 µM (inactive) | 57.7 µM (inactive) | > 100 µM (inactive) | > 100 µM (inactive) | > 100 µM (inactive) | –
COc1cc(C2c3cc4c(cc3[C@@H](NCCN3CCCCC3)C3COC(=O)[C@H]23)OCO4)cc(OC)c1O (stereo not given in full) | 0.188 µM (active) | 0.671 µM (active) | 0.055 µM (active) | 1.63 µM (inactive) | – | 1.82 µM (inactive) | 0.337 | 0.265 µM (active) | 1.23 µM (inactive) | 0.324 µM (active) | < 0.01 µM (active) | 0.27 µM (active) | 0.998 µM (active) | 0.628 µM (active) | 0.325 µM (active) | 0.0526 µM (active) | 0.621 µM (active) | 0.566 µM (active) | 0.4 µM (active)
